Laboratory results published in patent US20250376441A1, “NOVEL COMPOUND AND PHARMACEUTICAL COMPOSITION COMPRISING SAME AS ACTIVE INGREDIENT” (Industry-Academic Cooperation Foundation, Yonsei University, priority 2017, published 2025).
Where “and” joins values, the source holds several entries; their conditions need not be identical. Identical values can stand only once. Like-named read-outs stand apart in the source and are kept apart here.

How the values were obtained:
hERG channel = hERG channel (Homo sapiens, UniProt Q12809); assay: Cardiac stability test, hERG ligand binding assay; details: read-out: Inhibition rate
acetylcholine hydrolase = assay type: in vivo; details: brain tissue
Protocol: Subsequently, the syringe was allowed to stand for 5 minutes and then removed.
Then, acetylcholine hydrolase activity was measured by the following method. To a microplate were continuously added 300 μl of 0.1 M Tris buffer, pH 8.0 (Trizma HCl±Trizmabase), 20 μl of 0.01 M dithionitrobenzoic acid (DTNB; Sigma, USA), 10 μl of brain tissue homogenate (enzyme suspension). Immediately before absorbance measurement, 10 μl of 0.1 M acetylthiocholine chloride (Sigma, USA) as a substrate was added thereto. An absorbance meter was used to observe absorbance changes at 405 nm for 5 minutes, so that acetylcholine hydrolase activity (unit/min/mg protein) was measured.

[1] = tested on: amyloid-beta peptide1-42 degenerative neurological disease-induced mice; assay: Probe test (Morris water maze, platform removed); assay type: in vivo, ICR mice; details: 90 seconds without platform
Protocol: (§1) In order to induce a degenerative neurological disease, the experimental animals of Preparatory Example 1 were anesthetized by inhalation with 2.5% isoflurane. Then, 1 μg of amyloid-beta peptide1-42, a degenerative neurological disease-inducing substance, was administered to the animals at both hippocampal positions (AP: −2.3, L: ±2.0, H: −1.5) using a stereotaxic apparatus. […] For the administration, 1 μl was injected, at a flow rate of 0.2 μl/min, with a […] gas-tight glass syringe (Hamilton, Reno, NV, USA) using a perfusion pump (Pump 22, Harvard Apparatus, South Natick, MA, USA). Subsequently, the syringe was allowed to stand for 5 minutes and then removed.
(§2) Then, a degenerative neurological disease was induced as in Preparation Example 2.
A circular pool (diameter: 120 cm, height: 75 cm) was filled with water to a depth of 25±1 cm as in FIG. 4, and a 24 cm platform was prepared by hiding it 1 cm below the water surface. Space cues were installed on the four sides of the wall so that the aminals can identify locations, and skimmed milk powder was dissolved into water so that the animals cannot identify the platform with naked eyes. One day before the experiment, all the experimental animals were allowed to swim freely for 1 minute in a water bath having no platform, so that the animals can adapt to the swimming situation. After that, a test group was allowed to start, in any order, from two of the three quadrants except the quadrant where the platform was placed, and allowed to find the platform for 60 seconds. In a case where an animal finds the platform, the animal was allowed to stay thereon for 20 seconds. […] As soon as end of the position learning time, which is the 20-second staying time, the animal was allowed to start again from any quadrant, and the time and distance to reach the platform were measured. The procedure was performed four times a day, and all procedures were taken with a camera and analyzed with a video tracking system (Panlab, USA). Probe trials were made on the fifth day after the four-day experiment in toal was completed. The test group was allowed to swim freely for 90 seconds without the platform, thereby performing evaluation on whether the test group holds a memory of the platform location. The results are illustrated in FIGS. 5 to 7.
The results are illustrated in FIGS. 8 and 9.

HFL-1 = assay: Cytotoxicity test (Cyto X cell viability assay kit), HFL-1; assay type: cell-based; details: Homo sapiens, HFL1
Protocol: (§3) In order to identify whether the Preparation Example 6 according to the present invention is toxic to cells, a cytotoxicity test was conducted at the Korea Research Institute of Chemical Technology using the Cyto X™ cell viability assay kit ([…]).

[2] = target: AMP-activated protein kinase (AMPK); assay: AMPK kinase assay (luminescence, purified enzyme, ATP, substrate peptide); assay type: biochemical; details: AMPK activation
Protocol: In order to identify an effect of the Preparation Example 6 having the highest docking score in Experimental Example 1 on activity of the AMP-activated protein kinase (AMPK), a kinase assay was performed. The kinase assay was performed as follows. […] Then, purified AMP-activated protein kinase and ATP were allowed to react on a substrate peptide for the AMP-activated protein kinase, and degrees of luminescence thereof were shown as EC50 in Table 3 and FIG. 3.

[3] = assay type: in vitro ADME; details: PAMPA
From the text: The results are illustrated in FIG. 17.

[4] = tested on: amyloid-beta peptide1-42 degenerative neurological disease-induced mice; assay: Rotarod test; assay type: in vivo, ICR mice; details: p<0.05 vs beta-amyloid group
Protocol: as §1, §2
As an experiment for evaluating effects of the samples on decreased motor coordination ability and motor sensation associated with a degenerative neurological disease, a rotarod experiment which examines the overall motor function of the test groups was conducted. The experimental method was as follows. […] After 24 hours, the time to lose balance and fall off the rotating cylinder of the same condition was measured, and the result is illustrated in FIG. 11.

[5] = Solubility by nephelometry; assay type: physicochemical; details: 5% DMSO in water, aqueous with cosolvent or surfactant or cyclodextrin, kinetic from dmso stock, DMSO 5%/water solvent
Protocol: (§4) For a preliminary examination on clinical application of the Preparation Example 6, evaluation on lipophilicity and solubility was performed.

Half-life test = assay: Half-life test
From the text: In order to identify whether the Preparation Example 6 according to the present invention can be orally administered, a half-life of the compound was checked. […] The results are illustrated in FIG. 18.

VERO = assay: Cytotoxicity test (Cyto X cell viability assay kit), VERO; assay type: cell-based; details: Chlorocebus sabaeus
Protocol: as §3

[6] = Lipophilicity (pKa, LogP); assay type: physicochemical; details: ACD/Labs T3 (pH-metrior)
Protocol: as §4

hERG channel, sequence (Q12809 whole entry): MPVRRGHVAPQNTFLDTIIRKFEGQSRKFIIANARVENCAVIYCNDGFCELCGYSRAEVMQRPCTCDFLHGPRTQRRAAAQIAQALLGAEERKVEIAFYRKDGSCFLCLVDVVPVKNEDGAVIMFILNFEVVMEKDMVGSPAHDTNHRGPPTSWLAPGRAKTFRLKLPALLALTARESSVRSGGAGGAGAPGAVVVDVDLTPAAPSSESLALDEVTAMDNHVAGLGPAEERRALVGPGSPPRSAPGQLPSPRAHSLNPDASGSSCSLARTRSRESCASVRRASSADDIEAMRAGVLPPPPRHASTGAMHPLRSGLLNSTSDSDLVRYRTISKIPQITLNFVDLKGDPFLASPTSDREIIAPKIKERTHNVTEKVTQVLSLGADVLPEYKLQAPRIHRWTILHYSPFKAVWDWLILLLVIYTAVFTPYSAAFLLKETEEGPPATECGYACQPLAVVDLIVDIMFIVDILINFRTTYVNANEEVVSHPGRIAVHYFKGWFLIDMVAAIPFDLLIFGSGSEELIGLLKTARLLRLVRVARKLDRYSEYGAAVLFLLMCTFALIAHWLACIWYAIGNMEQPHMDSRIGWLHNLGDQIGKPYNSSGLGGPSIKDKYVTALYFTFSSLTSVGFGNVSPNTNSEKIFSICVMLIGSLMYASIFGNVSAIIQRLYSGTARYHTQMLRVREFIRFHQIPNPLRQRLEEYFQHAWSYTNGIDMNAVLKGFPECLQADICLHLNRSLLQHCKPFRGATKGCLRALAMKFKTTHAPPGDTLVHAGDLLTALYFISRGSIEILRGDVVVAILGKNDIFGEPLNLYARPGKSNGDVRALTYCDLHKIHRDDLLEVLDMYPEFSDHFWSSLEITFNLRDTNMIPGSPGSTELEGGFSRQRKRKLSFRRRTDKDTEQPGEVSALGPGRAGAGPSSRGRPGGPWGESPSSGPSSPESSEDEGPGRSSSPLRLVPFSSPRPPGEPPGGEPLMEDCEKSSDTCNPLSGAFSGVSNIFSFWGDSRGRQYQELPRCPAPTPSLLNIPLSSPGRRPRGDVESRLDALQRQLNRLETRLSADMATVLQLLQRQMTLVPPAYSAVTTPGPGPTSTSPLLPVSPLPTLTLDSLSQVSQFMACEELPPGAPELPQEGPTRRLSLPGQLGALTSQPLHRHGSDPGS

Q: With `COc1ccc(OC)c(/C=C/C(=O)c2ccc(NS(=O)(=O)c3ccc(Cl)cc3)cc2)c1` [Preparation Example 6, (E)-4-Chloro-N-(4-(3-(2,5-dimethoxyphenyl)acryloyl)phenyl)benzenesulfonamide] as the compound, how does the inhibition at 10 µM (hERG channel; hERG channel (ligand binding assay)) read?
A: The inhibition at 10 µM was < 1%.

Q: What about the inhibition at 10 µM (hERG channel) of the same compound?
A: The inhibition at 10 µM was ≤ 1%.

Q: What about the acetylcholine hydrolase activity (acetylcholine hydrolase; 10 mg) of the same compound?
A: The acetylcholine hydrolase activity was 0.25±0.07 U/mg protein.

Q: What about the acetylcholine hydrolase activity (acetylcholine hydrolase; 100 mg) of the same compound?
A: The acetylcholine hydrolase activity was 0.24±0.05 U/mg protein.

Q: And the “swimming time in the target quadrant” value ([1]; 1 mg, p<0.05)?
A: Its value is 31.08 ± 6.33 s.

Q: What about the “swimming time in the target quadrant” value ([1]; 10 mg, p<0.01) of the same compound?
A: The value was 36.73 ± 7.78 s.

Q: What about the “swimming time in the target quadrant” value ([1]; 100 mg, p<0.01) of the same compound?
A: Its value is 36.51 ± 6.55 s.

Q: And the IC50 (HFL-1)?
A: The IC50 was > 100 µM.

Q: What about the EC50 [2] of the same compound?
A: Its EC50 is 0.637 µM.

Q: And the degree of permeability [3]?
A: The degree of permeability was “medium value”.

Q: And the “membrane permeability measured value” [3]?
A: The value was −4.4±0.152.

Q: What about the “time to keep balance on the rotating cylinder” value ([4]; 10 mg) of the same compound?
A: The value was 48.62 ± 10.54 s.

Q: What about the “time to keep balance on the rotating cylinder” value ([4]; 100 mg) of the same compound?
A: The value was 47.65 ± 8.13 s.

Q: What about the solubility [5] of the same compound?
A: The solubility was 206 µM and 94.4 µg/mL.

Q: What about the half-life (Half-life test) of the same compound?
A: The half-life was ≥ 3 h.

Q: What about the IC50 (VERO) of the same compound?
A: The IC50 was 83.6 µM.

Q: And the logP [6]?
A: The logP was 4.75.
